Measured values from the supplement of paper PMC10307832.

Legend:
Test in all cases: relative viability (nuclei count vs DMSO), 5 days (fraction); higher = more cells survive
CUDC-101 + Trametinib = compound: C#Cc1cccc(Nc2ncnc3cc(OC)c(OCCCCCCC(=O)NO)cc23)c1 [CUDC-101] + CC(=O)Nc1cccc(-n2c(=O)n(C3CC3)c(=O)c3c(Nc4ccc(I)cc4F)n(C)c(=O)c(C)c32)c1 [Trametinib] (partner 0.02 µM)
Summary of the method: (§1)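 Lung cancer cell lines were seeded in 1536-well plates and dosed by pin tool the next day, with either a single drug or a fixed anchor-drug dose combined with five library-drug doses (not always all listed) spaced in √10 steps. Five days later, one step fixed the cells and stained their nuclei (final 0.05% Triton X-100, 1% formaldehyde, 1 ug/ml Hoechst), and nuclei were counted on 4× images. Relative viability is the nuclei count in treated wells divided by the count in vehicle wells, and each value is the median of duplicate plates.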

CUDC-101 + Navitoclax = compound: C#Cc1cccc(Nc2ncnc3cc(OC)c(OCCCCCCC(=O)NO)cc23)c1 [CUDC-101] + CC1(C)CCC(c2ccc(Cl)cc2)=C(CN2CCN(c3ccc(C(=O)NS(=O)(=O)c4ccc(N[C@H](CCN5CCOCC5)CSc5ccccc5)c(S(=O)(=O)C(F)(F)F)c4)cc3)CC2)C1 [Navitoclax] (partner 0.5 µM)
Summary of the method: as §1

Vandetanib + Dasatinib = compound: COc1cc2/c(=N/c3ccc(Br)cc3F)nc[nH]c2cc1OCC1CCN(C)CC1 [Vandetanib] + Cc1nc(Nc2ncc(C(=O)Nc3c(C)cccc3Cl)s2)cc(N2CCN(CCO)CC2)n1 [Dasatinib] (partner 0.075 µM)
Summary of the method: as §1

Vandetanib + Olaparib = compound: COc1cc2/c(=N/c3ccc(Br)cc3F)nc[nH]c2cc1OCC1CCN(C)CC1 [Vandetanib] + O=C(c1cc(Cc2n[nH]c(=O)c3ccccc23)ccc1F)N1CCN(C(=O)C2CC2)CC1 [Olaparib] (partner 8 µM)
Summary of the method: as §1

Row | Cell Line | relative viability (CUDC-101 + Trametinib; first compound 0.01 µM) | relative viability (CUDC-101 + Trametinib; first compound 0.03162 µM) | relative viability (CUDC-101 + Trametinib; first compound 0.1 µM) | relative viability (CUDC-101 + Trametinib; first compound 0.3162 µM) | relative viability (CUDC-101 + Trametinib; first compound 1 µM) | relative viability (CUDC-101 + Navitoclax; first compound 0.01 µM) | relative viability (CUDC-101 + Navitoclax; first compound 0.03162 µM) | relative viability (CUDC-101 + Navitoclax; first compound 0.1 µM) | relative viability (CUDC-101 + Navitoclax; first compound 0.3162 µM) | relative viability (CUDC-101 + Navitoclax; first compound 1 µM) | relative viability (Vandetanib + Dasatinib; first compound 0.02 µM) | relative viability (Vandetanib + Dasatinib; first compound 0.06325 µM) | relative viability (Vandetanib + Dasatinib; first compound 0.2 µM) | relative viability (Vandetanib + Dasatinib; first compound 0.6325 µM) | relative viability (Vandetanib + Dasatinib; first compound 2 µM) | relative viability (Vandetanib + Olaparib; first compound 0.02 µM) | relative viability (Vandetanib + Olaparib; first compound 0.06325 µM) | relative viability (Vandetanib + Olaparib; first compound 0.2 µM) | relative viability (Vandetanib + Olaparib; first compound 0.6325 µM) | relative viability (Vandetanib + Olaparib; first compound 2 µM)
1 | HCC-78 | 0.781 | 0.711 | 0.864 | 0.667 | 0.545 | 0.76 | 0.706 | 0.846 | 0.684 | 0.391 | 0.428 | 0.286 | 0.362 | 0.451 | 0.336 | 0.823 | 0.756 | 0.748 | 0.913 | 0.703
2 | HCC-366 | 0.391 | 0.378 | 0.312 | 0.366 | 0.209 | 1.1 | 0.875 | 1.06 | 1.08 | 0.844 | 0.6 | 0.625 | 0.663 | 0.561 | 0.637 | 0.438 | 0.34 | 0.389 | 0.362 | 0.31
3 | HCC-827 | 0.53 | 0.257 | 0.18 | 0.183 | 0.147 | 1.1 | 0.66 | 0.271 | 0.184 | 0.167 | 0.489 | 0.276 | 0.284 | 0.152 | 0.13 | 0.629 | 0.653 | 0.627 | 0.309 | 0.152
4 | HOP-62 | 0.362 | 0.361 | 0.403 | 0.441 | 0.346 | 1.17 | 0.954 | 1.02 | 1.02 | 1.01 | 0.611 | 0.569 | 0.671 | 0.573 | 0.684 | 0.51 | 0.397 | 0.265 | 0.373 | 0.447
5 | IA-LM |  |  |  |  |  | 0.685 | 0.806 | 0.698 | 0.832 | 0.281 |  |  |  |  |  | 0.969 | 0.874 | 0.864 | 0.867 | 0.849
6 | LC-2-ad | 0.929 | 0.913 | 0.912 | 0.823 | 0.773 | 0.462 | 0.475 | 0.49 | 0.517 | 0.196 | 0.574 | 0.471 | 0.49 | 0.317 | 0.211 | 0.673 | 0.711 | 0.695 | 0.792 | 0.714
7 | LCLC-97TM1 | 0.175 | 0.193 | 0.223 | 0.227 | 0.164 | 0.416 | 0.304 | 0.593 | 0.377 | 0.306 | 0.801 | 0.848 | 0.807 | 0.865 | 0.786 | 0.374 | 0.377 | 0.357 | 0.352 | 0.343
8 | LCLC-103H | 0.666 | 0.66 | 0.662 | 0.707 | 0.681 |  |  |  |  |  | 0.511 | 0.422 | 0.43 | 0.424 | 0.47 | 0.729 | 0.657 | 0.529 | 0.698 | 0.707
9 | LK-2 | 0.715 | 0.625 | 0.884 | 0.592 | 0.392 | 0.927 | 0.826 | 0.819 | 0.741 | 0.415 | 0.261 | 0.24 | 0.295 | 0.239 | 0.221 | 0.846 | 0.71 | 0.724 | 0.72 | 0.669
10 | LOU-NH91 | 0.804 | 0.727 | 0.738 | 0.831 | 0.738 | 0.773 | 0.505 | 0.473 | 0.466 | 0.251 | 0.53 | 0.433 | 0.506 | 0.442 | 0.317 | 0.901 | 0.788 | 0.813 | 0.732 | 0.679
11 | NCI-H358 | 0.142 | 0.135 | 0.119 | 0.143 | 0.115 |  |  |  |  |  | 0.131 | 0.201 | 0.161 | 0.136 | 0.124 | 0.552 | 0.527 | 0.646 | 0.472 | 0.319
12 | NCI-H522 | 0.605 | 0.747 | 0.893 | 0.651 | 0.642 |  |  |  |  |  | 0.849 | 0.724 | 0.885 | 0.808 | 0.821 | 0.604 | 0.703 | 0.689 | 0.743 | 0.605
13 | NCI-H650 | 1.06 | 0.864 | 1.08 | 1.16 | 0.911 |  |  |  |  |  | 0.425 | 0.511 |  | 0.433 | 0.365 | 0.359 | 0.361 | 0.392 | 0.409 | 0.445
14 | NCI-H661 | 0.566 | 0.529 | 0.609 | 0.542 | 0.374 |  |  |  |  |  | 0.988 | 0.856 | 0.837 | 0.803 | 0.874 | 0.793 | 0.696 | 0.726 | 0.759 | 0.735
15 | NCI-H1299 |  |  |  |  |  | 1.05 | 0.992 | 1.12 | 1.06 | 1.02 |  |  |  |  |  | 0.983 | 0.928 | 0.924 | 0.933 | 0.981
16 | NCI-H1563 |  |  |  |  |  |  |  |  |  |  | 0.44 | 0.443 | 0.462 | 0.472 | 0.454 |  |  |  |  | 
17 | NCI-H1623 |  |  |  |  |  |  |  |  |  |  | 0.489 | 0.576 | 0.502 | 0.507 | 0.404 |  |  |  |  | 
18 | NCI-H1648 | 0.461 | 0.595 | 0.437 | 0.351 | 0.277 |  |  |  |  |  |  |  |  |  |  | 0.591 | 0.771 | 0.91 | 1.15 | 0.761
19 | NCI-H1703 |  |  |  |  |  | 0.968 |  | 1.21 | 1.59 | 0.794 |  |  |  |  |  | 0.458 | 0.267 | 0.385 | 0.342 | 0.303
20 | NCI-H2342 | 0.789 | 0.947 | 0.814 | 0.819 | 0.777 |  |  |  |  |  | 0.339 | 0.335 | 0.321 | 0.315 | 0.361 | 0.482 | 0.41 | 0.477 | 0.415 | 0.438
21 | SW 900 | 0.914 | 0.74 | 0.799 | 0.627 | 0.746 |  |  |  |  |  | 0.445 | 0.57 | 0.537 | 0.641 | 0.409 | 0.804 | 0.784 |  | 0.88 | 0.815
